Consider eleven compounds from patent US8487108B2, “Piperidinyl carbamate intermediates for the synthesis of aspartic protease inhibitors” (Vitae Pharmaceuticals, Inc., priority 2005, dated 2013).

The target in the experiment is T1, trypsin-activated recombinant human renin (Homo sapiens, UniProt P00797).
T1 sequence (P00797 67-406): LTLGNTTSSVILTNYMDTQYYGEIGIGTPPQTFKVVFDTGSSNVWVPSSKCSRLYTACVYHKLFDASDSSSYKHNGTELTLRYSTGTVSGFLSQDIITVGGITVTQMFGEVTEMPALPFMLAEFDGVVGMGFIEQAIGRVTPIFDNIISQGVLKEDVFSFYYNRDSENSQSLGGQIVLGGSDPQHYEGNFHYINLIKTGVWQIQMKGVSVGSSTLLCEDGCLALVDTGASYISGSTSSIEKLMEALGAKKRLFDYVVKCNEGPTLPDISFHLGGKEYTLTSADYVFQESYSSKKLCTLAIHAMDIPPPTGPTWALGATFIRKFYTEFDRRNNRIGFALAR
Nature of the experiment: Renin fluorescence assay (internally quenched peptide substrate). Format: biochemical. To be noted: compounds I*. How it is done:
The sequence of this peptide corresponds to the sequence of human angiotensinogen. The following test protocol can be used. All reactions are carried out in a flat bottom white opaque microtiter plate. A 4 μL aliquot of 400 μM renin substrate (DABCYL-γ-[…]) in 192 μL assay buffer (50 mM BES, 150 mM NaCl, 0.25 mg/mL bovine serum albumin, pH7.0) is added to 4 μL of test compound in DMSO at various concentrations ranging from 10 μM to 1 nM final concentrations. Next, 100 μL of trypsin-activated recombinant human renin (final enzyme concentration of 0.2-2 nM) in assay buffer is added, and the solution is mixed by pipetting. The increase in fluorescence at 495 nm (excitation at 340 nm) is measured for 60-360 minutes at rt using a Perkin-Elmer Fusion microplate reader. The slope of a linear portion of the plot of fluorescence-increase as a function of time is then determined, and the rate is used for calculating percent inhibition in relation to uninhibited control. […] (Wang G. T. et al. Anal. Biochem. 1993, 210, 351; Nakamura, N. et al. J. Biochem. (Tokyo) 1991, 109, 741; Murakami, K. et al. Anal Biochem. 1981, 110, 232).

On to `CNC[C@H](CC1CCCCC1)NC(=O)N1CCC[C@@H]([C@@H](OCC(C)NC(=O)OC)c2cccc(Cl)c2)C1` (some centres unmarked) [I*-87a], for which the IC50 was under 50 nM. With `COC(=O)NCCO[C@@H](c1cccc(Cl)c1)[C@@H]1CCCN(C(=O)N[C@@H]2CNCC[C@H]2CC2CCC2)C1` (relative stereo) [I*-44a, methyl 2-((R)-(3-chlorophenyl)((R)-1-((3S*,4R*)-4-(cyclobutylmethyl)piperidin-3-ylcarbamoyl)piperidin-3-yl)methoxy)ethylcarbamate] the figure was under 10 nM; with `CNC[C@H](CC1CCCCC1)NC(=O)N1CCC[C@@H]([C@@H](OCCCC(=O)NC)c2cccc(Cl)c2)C1` [I*-45a, (R)-3-((R)-(3-chlorophenyl)(4-(methylamino)-4-oxobutoxy)methyl)-N—((S)-1-cyclohexyl-3-(methylamino)propan-2-yl)piperidine-1-carboxamide], under 50 nM; with `CN[C@H](CNC(=O)N1CCC[C@@H]([C@@H](OCCNC(=O)OC)c2cccc(Cl)c2)C1)C[C@H]1CCCCOC1` [I*-110a, methyl 2-((R)-(3-chlorophenyl)((R)-1-((S)-2-(methylamino)-3-((R)-oxepan-3-yl)propylcarbamoyl)piperidin-3-yl)methoxy)ethylcarbamate], under 1 nM.

As to `CNC[C@H](CC1CCCCC1)NC(=S)N1CCC[C@@H]([C@@H](OCCNC(=O)OC)c2cccc(Cl)c2)C1` [I*-111a, methyl 2-((R)-(3-chlorophenyl)((R)-1-((S)-1-cyclohexyl-3-(methylamino)propan-2-ylcarbamothioyl)piperidin-3-yl)methoxy)ethylcarbamate], the IC50 was under 1 nM.

`COC(=O)NCCO[C@@H](c1cccc(F)c1)[C@@H]1CCCN(C(=O)N[C@H](CN)CC2CCCCC2)C1` [I*-4a, methyl 2-((R)-((R)-1-((S)-1-amino-3-cyclohexylpropan-2-ylcarbamoyl)piperidin-3-yl)(3-fluorophenyl)methoxy)ethylcarbamate]: the IC50 is under 1 nM. The figure for `CNC[C@H](C[C@H]1CCCCOC1)NC(=O)N1CCC[C@@H]([C@@H](OCCNC(=O)OC)c2ccccc2)C1` [I*-21a, Methyl 2-((R)—((R)-1-((S)-1-(methylamino)-3-((R)-oxepan-3-yl)propan-2-ylcarbamoyl)piperidin-3-yl)(phenyl)methoxy)ethylcarbamate] is under 10 nM; for `CNC[C@H](CC1CCC(O)CC1)NC(=O)N1CCC[C@@H]([C@@H](OCCNC(=O)OC)c2cccc(Cl)c2)C1` (stereo partly drawn) [I*-102a, methyl 2-((R)-(3-chlorophenyl)((R)-1-((S)-1-(4-hydroxycyclohexyl)-3-(methylamino)propan-2-ylcarbamoyl)piperidin-3-yl)methoxy)ethylcarbamate] it is under 50 nM; for `CNC[C@H](C[C@H]1CCCC[C@@H]1O)NC(=O)N1CCC[C@@H]([C@@H](OCCNC(=O)OC)c2cccc(Cl)c2)C1` (relative stereo) [I*-105a, methyl 2-((R)-(3-chlorophenyl)((R)-1-((S)-1-((1R,2S)-2-hydroxycyclohexyl)-3-(methylamino)propan-2-ylcarbamoyl)piperidin-3-yl)methoxy)ethylcarbamate] it is under 10 nM.

In the case of `CNC[C@H](CN1CCCCC1=O)NC(=O)N1CCC[C@@H]([C@@H](OCCNC(=O)OC)c2cccc(Cl)c2)C1` [I*-93a, methyl 2-((R)-(3-chlorophenyl)((R)-1-((R)-1-(methylamino)-3-(2-oxopiperidin-1-yl)propan-2-yl-carbamoyl)piperidin-3-yl)methoxy)ethylcarbamate], the 50% inhibitory concentration (IC50) was over 50 nM. With `CNC[C@H](C[C@H]1CCC(C)(C)OC1)NC(=O)N1CCC[C@@H]([C@@H](OCCNC(=O)OC)c2cc(F)cc(F)c2)C1` [I*-155a, methyl 2-((R)-(3,5-difluorophenyl)((R)-1-((S)-1-((R)-6,6-dimethyl-tetrahydro-2H-pyran-3-yl)-3-(methylamino)propan-2-ylcarbamoyl)piperidin-3-yl)methoxy)ethylcarbamate] the figure was under 10 nM.
